“Also recorded” adds a separate entry of the source. Where two headings read alike, the source gives them in different places.
Tests used:
[1] = tested on: codeinone reductase isoforms; type: biochemical, Papaver somniferum; details: for serves as substrate in the reductive reaction: NADPH as cofactor, physiologically forward reaction
Experimental: The two other potential substrates for reduction, the 1,2-dehydroreticulinium ion and salutaridine (FIG. 1), or for the physiologically reverse reaction, salutaridinol and (R)-reticuline, were tested as substrates; with the codeinone reductase isoforms.
In order to test for a functional evolutionary relationship between isoflavonoid and alkaloid anabolism, codeinone reductase was analyzed for the ability to substitute for the reductase in the formation of 6-deoxychalcone in co-action with either native chalcone synthase or native stilbene synthase from Pinus sylvestris.

COR1.2 = COR1.2 (Papaver somniferum, UniProt Q9SQ69); assay: Km determination with purified recombinant codeinone reductase isoform COR1.2
COR1.2, sequence (Q9SQ69 whole entry, canonical isoform): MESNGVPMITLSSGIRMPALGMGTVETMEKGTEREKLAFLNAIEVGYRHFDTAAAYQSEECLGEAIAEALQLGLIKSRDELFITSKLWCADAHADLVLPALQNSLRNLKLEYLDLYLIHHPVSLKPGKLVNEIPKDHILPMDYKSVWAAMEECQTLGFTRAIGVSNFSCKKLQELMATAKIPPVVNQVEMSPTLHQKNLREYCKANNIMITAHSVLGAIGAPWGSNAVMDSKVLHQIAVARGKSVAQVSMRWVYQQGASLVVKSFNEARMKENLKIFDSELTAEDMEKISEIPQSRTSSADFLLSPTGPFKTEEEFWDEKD
Experimental: (§1) The four codeinone reductase isoform-calmodulin-binding peptide fusion proteins were purified from E. coli lysates in one step with a calmodulin affinity column.
(§2) For all isoforms, the temperature optimum for reduction (physiologically forward reaction) was 28° C., for oxidation (physiologically reverse reaction) was 30° C., the pH optimum for reduction was 6.8 and for oxidation was 9.0.
(§3) For enzyme assays, single colonies were picked and grown in 3 ml Luria-Bertani medium containing 100 μg/ml ampicillin at 37° C. to an OD590 of 0.8. For protein purification, single colonies were picked and grown in 1 l Luria-Bertani medium containing 100 μg/ml ampicillin at 37° C. to an OD590 of 1.8. […] The bacterial pellet from a 3 ml culture was resuspended in 0.5 ml buffer and that from a one liter culture in 100 ml buffer. The cells were ruptured by sonication.

COR1.3 = COR1.3 (Papaver somniferum, UniProt Q9SQ68); assay: Km determination with purified recombinant codeinone reductase isoform COR1.3
COR1.3, sequence (Q9SQ68 whole entry, canonical isoform): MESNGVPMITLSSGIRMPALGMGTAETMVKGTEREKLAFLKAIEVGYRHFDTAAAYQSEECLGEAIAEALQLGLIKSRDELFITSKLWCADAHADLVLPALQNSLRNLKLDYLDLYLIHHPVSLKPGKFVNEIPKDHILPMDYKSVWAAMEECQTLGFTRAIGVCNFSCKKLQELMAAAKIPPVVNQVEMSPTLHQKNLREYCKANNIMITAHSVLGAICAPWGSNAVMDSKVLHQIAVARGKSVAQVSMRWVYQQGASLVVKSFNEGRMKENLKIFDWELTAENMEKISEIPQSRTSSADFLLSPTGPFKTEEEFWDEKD
Experimental: as §1, §2, §3

[2] = target: T1, reductase of the 6′-deoxychalcone synthase complex (Glycine max, UniProt P26690); assay: Codeinone/codeine conversion by the reductase of the 6'-deoxychalcone synthase complex; type: biochemical, soybean; details: in the presence of NADPH
T1 sequence (P26690 1-315): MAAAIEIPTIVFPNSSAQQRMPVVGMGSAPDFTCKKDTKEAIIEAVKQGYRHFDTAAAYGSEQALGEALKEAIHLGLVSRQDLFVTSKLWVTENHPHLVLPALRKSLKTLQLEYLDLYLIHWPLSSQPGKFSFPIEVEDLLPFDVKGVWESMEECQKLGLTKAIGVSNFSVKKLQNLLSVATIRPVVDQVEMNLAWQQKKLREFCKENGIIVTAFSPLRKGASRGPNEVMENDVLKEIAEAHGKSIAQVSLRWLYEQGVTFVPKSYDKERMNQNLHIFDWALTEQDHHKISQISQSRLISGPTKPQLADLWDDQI

[3] = tested on: COc1ccc2c3c1O[C@H]1C(=O)C=C[C@H]4[C@@H](C2)N(C)CC[C@]314; assay: cells, lysate or membranes named
Experimental: as §1, §2, §3

[4] = analogs and aldo/keto reductase family substrates, direction not given
[5] = NADP as cofactor, physiologically reverse reaction

## COc1ccc(C[C@@H]2NCCc3cc(OC)c(O)cc32)cc1O (mixture of isomers) [(S)-norreticuline, (S) and (R)-norreticuline]
[1]; [4]
  transformed by codeinone reductase (tested as substrate): inactive

## COc1ccc(CC2=[N+](C)CCc3cc(OC)c(O)cc32)cc1O [1,2-dehydroreticulinium ion]
[1]
  serves as substrate in the reductive reaction: None of these alkaloids served as substrate

## O=C1C=CCCC1 [2-cyclohexene-1-one]
[1]; [4]
  transformed by codeinone reductase (tested as substrate): not transformed

## C[C@]12CC[C@H]3[C@@H](CC=C4C[C@@H](O)CC[C@@]43C)[C@@H]1CC[C@@H]2O [5-androstene-3β,17β-diol]
[1]
  transformed by codeinone reductase (tested as substrate): not transformed

## C[C@]12CCC(=O)C[C@@H]1CC[C@@H]1[C@@H]2CC[C@]2(C)[C@@H](O)CC[C@@H]12 [5α-androstan-17β-ol-3-one]
[1]
  transformed by codeinone reductase (tested as substrate): not transformed

## CC(C)CCC[C@@H](C)[C@H]1CC[C@H]2[C@@H]3CC[C@H]4C[C@@H](O)CC[C@]4(C)[C@H]3CC[C@]12C [5α-cholestane-3β-ol]
[1]; [4]
  transformed by codeinone reductase (tested as substrate): not transformed

## COc1ccc(C[C@H]2NCCc3cc(OC)c(O)cc32)cc1O [(R)-norreticuline]
[1]; [4]
  transformed by codeinone reductase (tested as substrate): inactive

## COc1ccc(C[C@@H]2c3cc(O)c(OC)cc3CCN2C)cc1O [(R)-reticuline]
[1]; [5]
  serves as substrate in the oxidative reaction: None of these alkaloids served as substrate

## COc1ccc(C[C@H]2c3cc(O)c(OC)cc3CCN2C)cc1O [(S)-reticuline]
[1]; [4]
  transformed by codeinone reductase (tested as substrate): inactive

## O=P(O)(O)OC[C@@H](O)[C@@H](O)[C@H](O)[C@@H](O)CO [D-Sorbitol-6-phosphate]
[1]; [4]
  transformed by codeinone reductase (tested as substrate): not transformed

## O=C[C@H](O)[C@@H](O)[C@H](O)CO [D-xylose]
[1]; [4]
  transformed by codeinone reductase (tested as substrate): not transformed

## NC(=O)C1=CN([C@@H]2O[C@H](COP(=O)(O)OP(=O)(O)OC[C@H]3O[C@@H](n4cnc5c(N)ncnc54)[C@H](O)[C@@H]3O)[C@@H](O)[C@H]2O)C=CC1 [NADH]
[1]; any of the isoforms
  ability to substitute for NADPH as cofactor: could not substitute for NADPH

## NC(=O)C1=CN([C@@H]2O[C@H](COP(=O)(O)OP(=O)(O)OC[C@H]3O[C@@H](n4cnc5c(N)ncnc54)[C@H](OP(=O)(O)O)[C@@H]3O)[C@@H](O)[C@H]2O)C=CC1 [NADPH]
COR1.2
  Km: 220 µM

## NC(=O)c1ccc[n+]([C@@H]2O[C@H](COP(=O)([O-])OP(=O)(O)OC[C@H]3O[C@@H](n4cnc5c(N)ncnc54)[C@H](OP(=O)(O)O)[C@@H]3O)[C@@H](O)[C@H]2O)c1 [NADP]
COR1.3
  Km: 45 µM
COR1.2
  Km: 58 µM

## COc1ccc2c3c1O[C@H]1C(=O)C=C[C@H]4[C@@H](C2)N(C)CC[C@]314 [codeinone]
[2]
  reduction by the reductase of the 6′-deoxychalcone synthase complex: could neither reduce

## O=C1CCCCC1 [cyclohexanone]
[1]; [4]
  transformed by codeinone reductase (tested as substrate): not transformed

## COc1ccc2c3c1O[C@H]1[C@@H](O)CC[C@H]4[C@@H](C2)N(C)CC[C@@]341 [dihydrocodeine]
[1]; [5]
  serves as substrate in the oxidative reaction: functions

## COc1ccc2c3c1O[C@H]1C(=O)CC[C@H]4[C@@H](C2)N(C)CC[C@]314 [hydrocodone]
[1]
  serves as substrate in the reductive reaction: functions

## CN1CC[C@]23c4c5ccc(O)c4O[C@H]2[C@@H](O)C=C[C@H]3[C@H]1C5 [morphine]
[1]
  serves as substrate in the oxidative reaction: functions

## CN1CC[C@]23c4c5ccc(O)c4O[C@H]2C(=O)C=C[C@H]3[C@H]1C5 [morphinone]
[1]
  serves as substrate in the reductive reaction: functions; also recorded: able to reduce

## COc1ccc2c3c1O[C@H]1[C@@H](O)C=C[C@H]4[C@@H](C2)NCC[C@@]341 [norcodeine]
[1]
  transformed by codeinone reductase (tested as substrate): inactive

## CCCCC[C@H](O)/C=C/[C@H]1C(=O)C[C@H](O)[C@@H]1CCCCCCC(=O)O [prostaglandin D1]
[1]; [4]
  transformed by codeinone reductase (tested as substrate): not transformed

## COC1=C[C@]23CCN(C)[C@H](Cc4ccc(OC)c(O)c42)C3=CC1=O [salutaridine]
[1]
  serves as substrate in the reductive reaction: None of these alkaloids served as substrate

## COC1=C[C@]23CCN(C)[C@H](Cc4ccc(OC)c(O)c42)C3=C[C@@H]1O [salutaridinol]
[1]; [5]
  serves as substrate in the oxidative reaction: None of these alkaloids served as substrate

## COR1.2 (Papaver somniferum)
[3]
  Km: 62 µM

## COR1.3 (Papaver somniferum)
[3]
  Km: 48 µM
